# Measurements taken from patent US20190117675A1, “Compositions And Methods To Treat And/Or Prevent Vision Disorders Of The Lens Of The Eye” (Helix Holding Company, priority 2014, published 2019).
# “Also recorded” adds a separate entry of the source.
# How the values were obtained:
# [1] = biological target: T1, αB-crystallin R120G mutant (Homo sapiens, UniProt P02511, R120G); assay: Negative-stain EM of aggregates treated with sterol in liposome; type: biochemical; conditions: negatively stained EM
# T1 construct: made in house
# T1 sequence (P02511 1-175 R120G): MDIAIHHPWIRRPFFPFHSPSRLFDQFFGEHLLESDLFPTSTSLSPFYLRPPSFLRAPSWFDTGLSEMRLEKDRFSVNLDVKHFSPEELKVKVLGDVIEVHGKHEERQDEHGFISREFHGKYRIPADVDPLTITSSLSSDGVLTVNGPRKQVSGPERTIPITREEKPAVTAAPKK
# Description: Representative negatively stained EM pictures of the aggregates of αB-crystallin R120G mutant treated by liposome, lanosterol in liposome and cholesterol in liposome, respectively. The EM samples were stained by 1.25% uranyl acetate.
# Quantitative analysis was performed by calculating the number of particles with length over 50 nm from six randomly picked viewing field. Each viewing field contained 30-50 particles.
# The aggregates of the WT and mutated αA- and αB-crystallin proteins were obtained by heating the proteins solutions containing 1 M guanidine chloride (ultrapure, Sigma) with a concentration of 5 mg/ml at 60° C. for 48 h. The aggregates of the WT and mutated β- and γ-crystallins were prepared by heating the protein solutions at pH 3 and 37° C. for 48 h. The formation of aggregates was confirmed by turbidity (absorbance at 400 nm) and transmission electron microscope (EM) measurements. The preformed aggregates were resuspended in 20 mM PBS with a final concentration of 0.1 mg/ml (approximately 5 μM). The resuspended aggregates were treated by 50 μM lanosterol or cholesterol in liposomes formed by 50 μM DPPS at 37° C. […] The soluble proteins were determined by centrifuge the protein solutions to separate the supernatant and precipitation fractions. Then the protein concentration in the supernatant was determined by the Bradford method. […]
# [2] = Lanosterol eye drop formulation evaluation (stability, irritation, intraocular bioavailability); conditions: dissolved in pure aqueous solution
# Description: The optimal formulation was selected based on the stability of the active ingredient, irritation, and intraocular bioavailability of the eye drops.
# cataractous rabbit lens = assay: Treatment of isolated cataractous rabbit lenses; conditions: isolated rabbit lenses incubated with lanosterol for 6 days
# Description: FIG. 9. […] Rabbit lenses (n=13) were dissected and incubated with lanosterol for 6 days and subsequently assessed for lens clarity and transparency. Pairs of photographs of each cataractous rabbit lens showing before and after treatment with scores underneath are shown.
# Rabbits were euthanized by CO2 inhalation and lenses were immediately dissected and were treated with vehicle or lanosterol dissolved in vehicle to make 5 mM solutions. Lens tissues were incubated in these solutions for 6 days in the dark at room temperature. Cataract were examined under a microscope and then photographed. Degree of cataract was assessed using AREDS cataract grading system.
# [3] = system: aA-crystallin-Y118D and aB-crystallin-R120G; assay: Dissolving of accumulated crystal protein in cells carrying two crystallin mutant plasmids; type: cell-based; conditions: 10 uM, compared with 1% DMSO solution
# Description: FIG. 13. Two mutant crystal proteins were introduced into cells. The accumulated crystal protein were treated by adding different agents.
# Cyclopentanoperhy drophenanthrene compounds of the present invention refers to a compound containing cyclopentanoperhy drophenanthrene skeleton structure, including its derivatives. After the two crystal protein mutant plasmid aA-crystallin-Y118D and aB-crystallin-R120G were introduced into cells, we investigated the lanosterol and its derivatives as well as cholesterol (Cholesterol) for their effects on intracellular accumulation of crystal protein. Not all cyclopentanoperhy drophenanthrene compound have the same effect.
# [4] = system: aggregates of various WT and mutated crystallins; assay: In vitro protein assay: dissociation of preformed crystallin aggregates (turbidity, soluble protein, EM); type: biochemical; conditions: 37° C.; for dissociation of aggregates of various WT and mutated crystallins: in vitro protein assay, 50 μM sterol in 50 μM DPPS liposome
# Description: Evaluation of the effect of lanosterol on the dissolution of crystallin aggregates by turbidity. Crystallin aggregates were formed by incubating 5mgml21 protein solution at 60° C. for 2 h (α-crystallins) or 37° C. for 48 h (β- and γ-crystallins) in the presence of 1M guanidine chloride. The preformed aggregates were re-suspended in PBS at a final protein concentration of 0.2 mg/ml and were treated with 500 μM sterols in 500 μM DPPC liposome and incubated at 37° C. for 24 h. Aggregates treated with 500 μM DPPC liposome only were used as the controls.
# The α-crystallin aggregates were formed by incubating 5 mg/ml protein solutions at 60° C. for 48 h in the presence of 1 M guanidine chloride. The β- and γ-crystallin aggregates were prepared by incubating the protein solutions at 37° C. and pH 3 for 48 h. The preformed aggregates were re-suspended in PBS with a final protein concentration of 0.1 mg/ml. The re-suspended aggregates were treated by 50 μM sterols in 50 μM DPPS liposome and incubated at 37° C. for 144 h. The aggregates treated by 50 μM DPPS liposome were used as the controls. The supernatant and precipitation fractions were separated by centrifugation. The protein concentrations in the supernatant fraction were determined by absorbance at 280 nm and the percentages of the soluble proteins were calculated from three independent repetitions.
# The recombinant his-tagged WT and mutated β- and γ-crystallin proteins were overexpressed in E. coli Rosetta and purified by Ni-NTA affinity column followed by gel filtration chromatography using the same protocol as those described elsewhere 13,14,16,18. The overexpression and purification of the non-tagged αA- and αB-crystallins were performed as described previously 19. The purity of the proteins were estimated to be above 95% as evaluated by one homogeneous band on 12.5% SDS-PAGE, 10% native-PAGE and a single peak in the size-exclusion chromatographyprofile. The protein concentration was determined according to the Bradford method by using BSA as the standard 20. All protein samples were prepared in 20 mM PBS buffer containing 150 mM NaCl, 1 mM EDTA and 1 mM DTT.
# The aggregates of the WT and mutated αA- and αB-crystallin proteins were obtained by heating the proteins solutions containing 1 M guanidine chloride (ultrapure, Sigma) with a concentration of 5 mg/ml at 60° C. for 48 h. The aggregates of the WT and mutated β- and γ-crystallins were prepared by heating the protein solutions at pH 3 and 37° C. for 48 h. The formation of aggregates was confirmed by turbidity (absorbance at 400 nm) and transmission electron microscope (EM) measurements. The preformed aggregates were resuspended in 20 mM PBS with a final concentration of 0.1 mg/ml (approximately 5 μM). The resuspended aggregates were treated by 50 μM lanosterol or cholesterol in liposomes formed by 50 μM DPPS at 37° C. After 72 h treatment, the protein solutions were used for negative-stained EM observations. After 144 h incubation, the protein solutions were used for turbidity measurements and determinations of protein concentrations in the soluble fractions. The soluble proteins were determined by centrifuge the protein solutions to separate the supernatant and precipitation fractions. Then the protein concentration in the supernatant was determined by the Bradford method. The EM samples were prepared by depositing the protein solutions onto a freshly glow-discharged carbon coated copper grid. […]
structure (smiles),measurement,setting,value
CC(C)=CCC[C@@H](C)[C@H]1CC[C@@]2(C)C3=C(CC[C@]12C)[C@@]1(C)CC[C@H](O)C(C)(C)[C@@H]1CC3 [Lanosterol],dissociation of aggregates formed by αB-crystallin R120G mutant (number of particles with length over 50 nm),[1],dissociates the aggregates
same,stability and solubility of lanosterol,[2],poor stability and low solubility
same,cataract severity and lens clarity,cataractous rabbit lens,reduced cataract severity and increased clarity
same,dissolving of accumulated crystal protein,[3],significantly dissolve accumulated crystals protein; also recorded: significant dissolving of the accumulated crystal protein
same,dissolution of crystallin aggregates by turbidity,"[4]; 500 μM sterols in 500 μM DPPC liposome, 24 h, 0.2 mg/ml protein",could dissociate the aggregates
same,dissociation of aggregates of various WT and mutated crystallins,[4],can dissociate the preformed amyloid-like fibrils/aggregates
same,dissociation of aggregates of various WT and mutated crystallins,[4]; listed as lanosterol,could dissociate the aggregates
